Paper PMC5218480 (PLoS ONE, 2017)

System: MV-4-11 cells
Experiment: Gene expression microarray analysis (Affymetrix PrimeView) and GSEA
Type: cell-based, human
Set-up: RFU PODN (11730768_x_at) / Fold change /veh PODN (11730768_x_at) / RFU LINC00158 (11744669_a_at) / Fold change /veh LINC00158 (11744669_a_at) / RFU DUSP10 (11751237_a_at) / Fold change /veh DUSP10 (11751237_a_at) / RFU ID3 (11757404_x_at) / Fold change /veh ID3 (11757404_x_at) / RFU PLEKHG5 (11737974_s_at) / Fold change /veh PLEKHG5 (11737974_s_at) / RFU LRRC4B (11730491_at) / Fold change /veh LRRC4B (11730491_at) / RFU GIMAP4 (11747438_a_at) / Fold change /veh GIMAP4 (11747438_a_at) / RFU KRT8 (11758183_x_at) / Fold change /veh KRT8 (11758183_x_at) / RFU CNN1 (11734310_a_at) / Fold change /veh CNN1 (11734310_a_at) / RFU VPS37D (11726825_at) / Fold change /veh VPS37D (11726825_at) / RFU C10orf10 (11716522_x_at) / Fold change /veh C10orf10 (11716522_x_at) / RFU KIR2DL2 /// KIR2DL4 /// KIR2DL5A /// KIR2DL5B /// KIR2DS1 /// KIR2DS2 /// KIR2DS3 /// KIR2DS4 /// KIR3DL3 /// KIR3DL3 /// KIR3DS1 (11738374_at) / Fold change /veh KIR2DL2 /// KIR2DL4 /// KIR2DL5A /// KIR2DL5B /// KIR2DS1 /// KIR2DS2 /// KIR2DS3 /// KIR2DS4 /// KIR3DL3 /// KIR3DL3 /// KIR3DS1 (11738374_at) / RFU C1QL1 (11718748_at) / Fold change /veh C1QL1 (11718748_at) / RFU TMPRSS4 (11747572_a_at) / Fold change /veh TMPRSS4 (11747572_a_at) / RFU HAMP (11756126_x_at) / Fold change /veh HAMP (11756126_x_at) / RFU RNFT2 (11725882_a_at) / Fold change /veh RNFT2 (11725882_a_at) / RFU NR4A2 (11747474_a_at) / Fold change /veh NR4A2 (11747474_a_at) / RFU ABCC12 (11746883_a_at) / Fold change /veh ABCC12 (11746883_a_at) / RFU TMEM136 (11760407_x_at) / Fold change /veh TMEM136 (11760407_x_at) / RFU CLDN22 /// WWC2 (11732394_at) / Fold change /veh CLDN22 /// WWC2 (11732394_at) / RFU HLA-DPB1 (11760878_x_at) / Fold change /veh HLA-DPB1 (11760878_x_at) / RFU SPINT1 (11716480_a_at) / Fold change /veh SPINT1 (11716480_a_at) / RFU GAP43 (11754022_s_at) / Fold change /veh GAP43 (11754022_s_at) / RFU A4GNT (11735810_at) / Fold change /veh A4GNT (11735810_at) / RFU PRB3 (11715151_x_at) / Fold change /veh PRB3 (11715151_x_at) / RFU TUBB4B (11761932_at) / Fold change /veh TUBB4B (11761932_at) / RFU CAPN14 (11732068_a_at) / Fold change /veh CAPN14 (11732068_a_at) / RFU TMCC2 (11721928_a_at) / Fold change /veh TMCC2 (11721928_a_at) / RFU IRGQ (11745062_a_at) / Fold change /veh IRGQ (11745062_a_at) / RFU FAM174B (11720279_a_at) / Fold change /veh FAM174B (11720279_a_at) / RFU TMPRSS4 (11748680_a_at) / Fold change /veh TMPRSS4 (11748680_a_at) / RFU FAM212B (11763350_a_at) / Fold change /veh FAM212B (11763350_a_at) / RFU PLEKHG5 (11743358_a_at) / Fold change /veh PLEKHG5 (11743358_a_at) / RFU ZSCAN30 (11745921_a_at) / Fold change /veh ZSCAN30 (11745921_a_at) / RFU CMKLR1 (11741424_a_at) / Fold change /veh CMKLR1 (11741424_a_at) / RFU LOC101060620 /// MAPK8IP1 (11723275_at) / Fold change /veh LOC101060620 /// MAPK8IP1 (11723275_at) / RFU SPTSSB (11747773_x_at) / Fold change /veh SPTSSB (11747773_x_at) / RFU PRSS12 (11739890_at) / Fold change /veh PRSS12 (11739890_at) / RFU BIN1 (11741810_x_at) / Fold change /veh BIN1 (11741810_x_at) / RFU WNT11 (11732464_a_at) / Fold change /veh WNT11 (11732464_a_at) / RFU C10orf10 (11716521_a_at) / Fold change /veh C10orf10 (11716521_a_at) / RFU C5orf56 (11738089_at) / Fold change /veh C5orf56 (11738089_at) / RFU CYB561 (11721691_x_at) / Fold change /veh CYB561 (11721691_x_at) / RFU ANKRD19P (11752326_a_at) / Fold change /veh ANKRD19P (11752326_a_at) / RFU OR2T12 /// OR2T33 /// OR2T8 (11738714_s_at) / Fold change /veh OR2T12 /// OR2T33 /// OR2T8 (11738714_s_at) / RFU VCAN (11748164_a_at) / Fold change /veh VCAN (11748164_a_at) / RFU JSRP1 (11732532_at) / Fold change /veh JSRP1 (11732532_at) / RFU KRTAP10-11 (11738290_x_at) / Fold change /veh KRTAP10-11 (11738290_x_at) / RFU MYO3A (11730013_a_at) / Fold change /veh MYO3A (11730013_a_at) / RFU EBF3 (11725865_a_at) / Fold change /veh EBF3 (11725865_a_at) / RFU CAMK2N1 (11719241_x_at) / Fold change /veh CAMK2N1 (11719241_x_at) / RFU C5orf56 (11738088_a_at) / Fold change /veh C5orf56 (11738088_a_at) / RFU OLFML3 (11715873_a_at) / Fold change /veh OLFML3 (11715873_a_at) / RFU LOC100653217 /// NTM (11731650_a_at) / Fold change /veh LOC100653217 /// NTM (11731650_a_at) / RFU MAPK11 (11762145_a_at) / Fold change /veh MAPK11 (11762145_a_at) / RFU FIZ1 (11724087_x_at) / Fold change /veh FIZ1 (11724087_x_at) / RFU OASL (11726364_x_at) / Fold change /veh OASL (11726364_x_at) / RFU SOX15 (11748057_x_at) / Fold change /veh SOX15 (11748057_x_at) / RFU CD79A (11719716_a_at) / Fold change /veh CD79A (11719716_a_at) / RFU HIST1H1D (11736915_at) / Fold change /veh HIST1H1D (11736915_at) / RFU CASKIN2 (11723855_a_at) / Fold change /veh CASKIN2 (11723855_a_at) / RFU LOC730098 (11760151_x_at) / Fold change /veh LOC730098 (11760151_x_at) / RFU OR4N2 (11742367_at) / Fold change /veh OR4N2 (11742367_at) / RFU PRRT2 (11749266_a_at) / Fold change /veh PRRT2 (11749266_a_at) / RFU SNX32 (11753110_a_at) / Fold change /veh SNX32 (11753110_a_at) / RFU CDHR5 (11726645_a_at) / Fold change /veh CDHR5 (11726645_a_at) / RFU RCAN1 (11760418_a_at) / Fold change /veh RCAN1 (11760418_a_at) / RFU FAM167A (11723789_a_at) / Fold change /veh FAM167A (11723789_a_at) / RFU FAM26E (11764081_at) / Fold change /veh FAM26E (11764081_at) / RFU ISYNA1 (11749810_s_at) / Fold change /veh ISYNA1 (11749810_s_at) / RFU ACY1 (11761880_at) / Fold change /veh ACY1 (11761880_at) / RFU 11764098_at / Fold change /veh 11764098_at / RFU SAMD14 (11745864_x_at) / Fold change /veh SAMD14 (11745864_x_at) / RFU NPB (11741838_a_at) / Fold change /veh NPB (11741838_a_at) / RFU TMPRSS6 (11731388_a_at) / Fold change /veh TMPRSS6 (11731388_a_at) / RFU KRTAP10-2 (11738614_at) / Fold change /veh KRTAP10-2 (11738614_at) / RFU ARHGAP8 /// PRR5-ARHGAP8 (11727945_x_at) / Fold change /veh ARHGAP8 /// PRR5-ARHGAP8 (11727945_x_at) / RFU KRTAP5-7 /// NADSYN1 (11734609_at) / Fold change /veh KRTAP5-7 /// NADSYN1 (11734609_at) / RFU RASL12 (11751679_a_at) / Fold change /veh RASL12 (11751679_a_at) / RFU CDKN2B (11736163_a_at) / Fold change /veh CDKN2B (11736163_a_at) / RFU PRF1 (11729649_at) / Fold change /veh PRF1 (11729649_at) / RFU, ZNF638 /// ZNF638-IT1 / Fold change vs veh, ZNF638 /// ZNF638-IT1 / RFU, PANK3 / Fold change vs veh, PANK3 / RFU, SH3YL1 / Fold change vs veh, SH3YL1 / RFU, ZEB2 / Fold change vs veh, ZEB2 / RFU, NRIP1 / Fold change vs veh, NRIP1 / RFU, PTTG1IP / Fold change vs veh, PTTG1IP / RFU, CAPN2 / Fold change vs veh, CAPN2 / RFU, MED14 / Fold change vs veh, MED14 / RFU, SNORA58 / Fold change vs veh, SNORA58 / RFU, C1orf63 / Fold change vs veh, C1orf63 / RFU, LRRFIP1 / Fold change vs veh, LRRFIP1 / RFU, NDUFAF7 / Fold change vs veh, NDUFAF7 / RFU, SLC12A2 / Fold change vs veh, SLC12A2 / RFU, IBTK / Fold change vs veh, IBTK / RFU, ESF1 / Fold change vs veh, ESF1 / Fold change vs veh, TMEM50B / RFU, TAOK1 / Fold change vs veh, TAOK1 / RFU, ACBD3 / Fold change vs veh, ACBD3 / RFU, TMA16 / Fold change vs veh, TMA16 / RFU, RWDD3 / Fold change vs veh, RWDD3 / RFU, BCAT1 / Fold change vs veh, BCAT1 / RFU, EDEM3 / Fold change vs veh, EDEM3 / RFU, TMEM33 / Fold change vs veh, TMEM33 / RFU, WDR75 / Fold change vs veh, WDR75 / RFU, AHCTF1 / Fold change vs veh, AHCTF1 / RFU, TFRC / Fold change vs veh, TFRC / RFU, ZDHHC17 / Fold change vs veh, ZDHHC17 / RFU, NOM1 / Fold change vs veh, NOM1 / RFU, ARL8B / Fold change vs veh, ARL8B / RFU, ZBTB11 / Fold change vs veh, ZBTB11 / RFU, TAMM41 / Fold change vs veh, TAMM41 / RFU, KIAA1704 /// LOC100996395 / Fold change vs veh, KIAA1704 /// LOC100996395 / RFU, ING1 / Fold change vs veh, ING1 / RFU, TRMT61B / Fold change vs veh, TRMT61B / RFU, FUBP3 / Fold change vs veh, FUBP3 / RFU, TP53 / Fold change vs veh, TP53 / RFU, TNKS2 / Fold change vs veh, TNKS2 / RFU, ZFP14 / Fold change vs veh, ZFP14 / RFU, ACTR2 / Fold change vs veh, ACTR2 / RFU, PPP3R1 / Fold change vs veh, PPP3R1 / RFU, PIK3R1 / Fold change vs veh, PIK3R1 / RFU, HNRNPA1 / Fold change vs veh, HNRNPA1 / RFU, RNF170 / Fold change vs veh, RNF170 / RFU, ZNF28 / Fold change vs veh, ZNF28 / RFU, RNGTT / Fold change vs veh, RNGTT / RFU, OGT / Fold change vs veh, OGT / RFU, BRD1 / Fold change vs veh, BRD1 / RFU, MARS / Fold change vs veh, MARS / RFU, ZNF655 / Fold change vs veh, ZNF655 / RFU, FAHD1 / Fold change vs veh, FAHD1 / RFU, BDP1 / Fold change vs veh, BDP1 / RFU, LRRCC1 / Fold change vs veh, LRRCC1 / RFU, ARID1A / Fold change vs veh, ARID1A / RFU, ZNF146 / Fold change vs veh, ZNF146 / RFU, ZNF330 / Fold change vs veh, ZNF330 / RFU, GPN3 / Fold change vs veh, GPN3 / RFU, C9orf123 / Fold change vs veh, C9orf123 / RFU, N4BP2L2 / Fold change vs veh, N4BP2L2 / RFU, ARFIP1 / Fold change vs veh, ARFIP1 / RFU, FAM179B / Fold change vs veh, FAM179B / RFU, BCL10 / Fold change vs veh, BCL10 / RFU, UHRF1BP1L / Fold change vs veh, UHRF1BP1L / RFU, BET1 / Fold change vs veh, BET1 / RFU, CNOT2 / Fold change vs veh, CNOT2 / RFU, ZNF268 / Fold change vs veh, ZNF268 / Fold change vs veh, ZNF507 / RFU, DGCR2 / Fold change vs veh, DGCR2 / RFU, WDSUB1 / Fold change vs veh, WDSUB1 / Fold change vs veh, HSP90B1 /// MIR3652 / RFU, ADSS / Fold change vs veh, ADSS / RFU, GK / Fold change vs veh, GK / RFU, ZNF148 / Fold change vs veh, ZNF148 / RFU, TAF9 / Fold change vs veh, TAF9 / RFU, SLC1A5 / Fold change vs veh, SLC1A5 / RFU, SLMO2 / Fold change vs veh, SLMO2 / RFU, ABCC4 / Fold change vs veh, ABCC4 / RFU, LOC101060439 /// RAP1B / Fold change vs veh, LOC101060439 /// RAP1B / RFU, RFX7 / Fold change vs veh, RFX7 / RFU, GTPBP10 / Fold change vs veh, GTPBP10 / RFU, CNEP1R1 / Fold change vs veh, CNEP1R1 / RFU, BIVM-ERCC5 /// ERCC5 / Fold change vs veh, BIVM-ERCC5 /// ERCC5 / RFU, ILF3 / Fold change vs veh, ILF3 / RFU 11762660_at / Fold change /veh 11762660_at / RFU VCAN (11757783_s_at) / Fold change /veh VCAN (11757783_s_at) / RFU DDX43 (11728927_at) / Fold change /veh DDX43 (11728927_at) / RFU KRT8 (11758188_x_at) / Fold change /veh KRT8 (11758188_x_at) / RFU NKD1 (11759106_at) / Fold change /veh NKD1 (11759106_at) / RFU SRD5A1 (11742802_a_at) / Fold change /veh SRD5A1 (11742802_a_at) / RFU TPSAB1 /// TPSB2 (11721975_s_at) / Fold change /veh TPSAB1 /// TPSB2 (11721975_s_at) / RFU GSTM3 (11746129_a_at) / Fold change /veh GSTM3 (11746129_a_at) / RFU IL23R (11737362_x_at) / Fold change /veh IL23R (11737362_x_at) / RFU TMEM51 (11727254_a_at) / Fold change /veh TMEM51 (11727254_a_at) / RFU PIWIL2 (11732686_x_at) / Fold change /veh PIWIL2 (11732686_x_at) / RFU ORM1 (11744905_x_at) / Fold change /veh ORM1 (11744905_x_at) / RFU CCDC152 (11743942_at) / Fold change /veh CCDC152 (11743942_at) / RFU ECM1 (11717891_a_at) / Fold change /veh ECM1 (11717891_a_at) / RFU IL23R (11748794_a_at) / Fold change /veh IL23R (11748794_a_at) / RFU TNFAIP8L3 (11732012_x_at) / Fold change /veh TNFAIP8L3 (11732012_x_at) / RFU MBOAT4 (11741988_at) / Fold change /veh MBOAT4 (11741988_at) / RFU 11764193_at / Fold change /veh 11764193_at / RFU TMEM53 (11763286_at) / Fold change /veh TMEM53 (11763286_at) / RFU MAGEB2 (11727129_at) / Fold change /veh MAGEB2 (11727129_at) / RFU TMEM200A (11744735_a_at) / Fold change /veh TMEM200A (11744735_a_at) / RFU CCDC152 (11751479_a_at) / Fold change /veh CCDC152 (11751479_a_at) / RFU FAM211A (11726209_a_at) / Fold change /veh FAM211A (11726209_a_at) / RFU RGS16 (11746705_a_at) / Fold change /veh RGS16 (11746705_a_at) / RFU VCAN (11755009_s_at) / Fold change /veh VCAN (11755009_s_at) / RFU RHOB (11743442_s_at) / Fold change /veh RHOB (11743442_s_at) / RFU RGS16 (11720943_a_at) / Fold change /veh RGS16 (11720943_a_at) / RFU RGS16 (11720944_at) / Fold change /veh RGS16 (11720944_at) / RFU, VPS4B / Fold change vs veh, VPS4B / RFU, CREB1 / Fold change vs veh, CREB1 / RFU, DNAJC13 / Fold change vs veh, DNAJC13 / RFU, GNAQ / Fold change vs veh, GNAQ / RFU, CDK5R1 / Fold change vs veh, CDK5R1 / RFU, ZRANB3 / Fold change vs veh, ZRANB3 / RFU, CUL4A / Fold change vs veh, CUL4A / RFU, CCNY / Fold change vs veh, CCNY / RFU, UFL1 / Fold change vs veh, UFL1 / RFU, COG3 / Fold change vs veh, COG3 / RFU, DIAPH2 / Fold change vs veh, DIAPH2 / RFU, SKA2 / Fold change vs veh, SKA2 / RFU, AFF3 / Fold change vs veh, AFF3 / RFU, LMF1 / Fold change vs veh, LMF1 / RFU, IPO11 / Fold change vs veh, IPO11 / RFU, DFFB / Fold change vs veh, DFFB / RFU, FOXP1 / Fold change vs veh, FOXP1 / RFU, CARD8 / Fold change vs veh, CARD8 / RFU, STRN3 / Fold change vs veh, STRN3 / RFU, ADK / Fold change vs veh, ADK / RFU, RASSF2 / Fold change vs veh, RASSF2 / RFU, WIPF1 / Fold change vs veh, WIPF1 / RFU, LARP1B / Fold change vs veh, LARP1B / RFU, RASA1 / Fold change vs veh, RASA1 / RFU, RB1 / Fold change vs veh, RB1 / RFU, PPFIA1 / Fold change vs veh, PPFIA1 / RFU, MAT2A / Fold change vs veh, MAT2A / RFU, CCT5 / Fold change vs veh, CCT5 / RFU, WDR92 / Fold change vs veh, WDR92 / RFU, CUX1 / Fold change vs veh, CUX1 / RFU, TTC7A / Fold change vs veh, TTC7A / RFU, TMEM135 / Fold change vs veh, TMEM135 / RFU, DEPTOR / Fold change vs veh, DEPTOR / RFU, CPM / Fold change vs veh, CPM / RFU, DNAJB6 / Fold change vs veh, DNAJB6 / RFU, CACNA2D3 / Fold change vs veh, CACNA2D3 / RFU, DTX4 / Fold change vs veh, DTX4 / RFU, TFCP2 / Fold change vs veh, TFCP2 / RFU, GMCL1 /// GMCL1P1 / Fold change vs veh, GMCL1 /// GMCL1P1 / RFU, AEBP2 / Fold change vs veh, AEBP2 / RFU, SNHG1 /// SNORD22 /// SNORD25 /// SNORD26 /// SNORD27 /// SNORD28 /// SNORD29 /// SNORD31 / Fold change vs veh, SNHG1 /// SNORD22 /// SNORD25 /// SNORD26 /// SNORD27 /// SNORD28 /// SNORD29 /// SNORD31 / Fold change (Aza/veh), C12orf56 (ProbeSet 11735607_a_at) / Fold change (ACY-1035/veh), C12orf56 (ProbeSet 11735607_a_at) / Fold change (Aza/veh), FGFR1OP (ProbeSet 11751329_s_at) / Fold change (ACY-1035/veh), FGFR1OP (ProbeSet 11751329_s_at) / Fold change (Aza/veh), VPS36 (ProbeSet 11739960_a_at) / Fold change (ACY-1035/veh), VPS36 (ProbeSet 11739960_a_at) / RFU SYPL1 (11715823_x_at) / Fold change /veh SYPL1 (11715823_x_at) / RFU IGFBP7 (11715501_s_at) / Fold change /veh IGFBP7 (11715501_s_at) / RFU REEP3 (11722064_at) / Fold change /veh REEP3 (11722064_at) / RFU IGLL1 (11728026_x_at) / Fold change /veh IGLL1 (11728026_x_at): dose or concentration left out as unconfirmed
Conditions: ProbeSet 11740528_a_at; LIST D

SMILES: Nc1ncn([C@@H]2O[C@H](CO)[C@@H](O)[C@H]2O)c(=O)n1 [azacitidine]
- Fold change vs veh, AFF3: 0.47
